Assay results: patent US20090270278A1, “Methods and compounds for making arrays” (AMBERGEN, Inc., priority 2007, published 2009)

Target: T1, protein kinase Cα (PKCα) (Homo sapiens, UniProt P17252)
T1 construct: isolate and photo-release endogenous PKCa from the undiluted detergent fractionated HeLa cell extracts; endogenous in cells; host or cells: HeLa cells (ATCC)
Assay: PMA-mediated PKCα sub-cellular translocation, measured by kinase activity after isolation with photocleavable antibodies
Type: cell-based
Conditions: cultured HeLa cells stimulated with 200 nM PMA for 5 min, detergent-fractionated, based on kinase activity, n=4
Description: FIG. 20. Phorbol ester (PMA) mediated protein kinase Cα (PKCα) sub-cellular translocation as measured by functional activity following isolation with photocleavable antibodies. Cultured HeLa cells were stimulated with 200 nM PMA for 5 min and detergent fractionated into the cytosol and membrane compartments prior to isolation and purification with the photocleavable antibodies.
Cultured HeLa cells (ATCC; Manassas, Va.) were stimulated for 5 min with 200 nM Phorbol-12-Myristate-13-Acetate (PMA; EMD Biosciences, Inc., San Diego, Calif.) and subsequently detergent fractionated into sub-cellular compartments according to reported procedures [Ramsby et al. (1994) Electrophoresis 15, 265-277; Ramsby & Makowski. (1999) Methods Mol Biol 112, 53-66; Chiang et al. (2000) J Biochem Biophys Methods 46, 53-68]. PMA is a potent activator of PKCα and is well known to cause translocation of the kinase from the cytosolic to the membrane sub-cellular compartments [Ross & Joyner. (1997) Endothelium 5, 321-332; Bazan & Rapoport. (1996) JPharmacol Toxicol Methods 36, 87-95; Yazlovitskaya & Melnykovych. (1995) Cancer Lett 88, 179-183]. […]

CCCCCCCCCCCCCC(=O)O[C@@H]1[C@@H](C)[C@@]2(O)[C@@H](C=C(CO)C[C@]3(O)C(=O)C(C)=C[C@@H]23)[C@@H]2C(C)(C)[C@]12OC(C)=O [PMA, Phorbol-12-Myristate-13-Acetate]
relative sub-cellular distribution of PKCα, membrane (baseline 21±2% membrane): 84±3% | relative sub-cellular distribution of PKCα, cytosol (baseline 79±7% cytosol): 16±4%
